Data on 6 compounds can be found in ChEMBL document CHEMBL1148163, “Studies on inhibitors of skin tumor promotion, XII. Rotenoids from Amorpha fruticosa” (J Nat Prod, 1993).

For series [1], the system named is Raji. Kind of series: Inhibition of 12-O-tetradecanoylphorbol-13-acetate induced EBV-early antigen activation in human Raji cells assessed as EA activation at 10 molar ratio relative to TPA. The series is classed as cell-based. Particulars: human gammaherpesvirus 4. Details: scale not given: the % may be the effect or the level left.
A short description of series [2]: Cytotoxicity against human Raji cells assessed as cell viability at 100 molar ratio. The series is classed as cell-based. Particulars: read-out: Activity.
Series [3] has as its system Raji. As to the kind of experiment: Inhibition of 12-O-tetradecanoylphorbol-13-acetate induced EBV-early antigen activation in human Raji cells assessed as EA activation at 500 molar ratio relative to TPA. The series is classed as cell-based. Details: scale not given: the % may be the effect or the level left. Particulars: human gammaherpesvirus 4.
In series [4] the test system is Raji. As to the kind of experiment: Inhibition of 12-O-tetradecanoylphorbol-13-acetate induced EBV-early antigen activation in human Raji cells assessed as EA activation at 100 molar ratio relative to TPA. The series is classed as cell-based. Details: scale not given: the % may be the effect or the level left. Particulars: human gammaherpesvirus 4.
Series [5] can be described thus: Cytotoxicity against human Raji cells assessed as cell viability at 1000 molar ratio. The series is classed as cell-based. To be noted: read-out: Activity.
Series [6] has as its system Raji. As to the kind of experiment: Inhibition of 12-O-tetradecanoylphorbol-13-acetate induced EBV-early antigen activation in human Raji cells assessed as EA activation at 1000 molar ratio relative to TPA. The series is classed as cell-based. Further details: scale not given: the % may be the effect or the level left. To be noted: human gammaherpesvirus 4.
Series [7] is described as follows: Cytotoxicity against human Raji cells assessed as cell viability at 500 molar ratio. The series is classed as cell-based. To be noted: read-out: Activity.
The nature of series [8]: Cytotoxicity against human Raji cells assessed as cell viability at 10 molar ratio. The series is classed as cell-based. Particulars: read-out: Activity.
Series [9] relates to Raji. Kind of series: Effect on TPA-induced cell cycle arrest in human Raji cells assessed as accumulation at G1 phase at 32 nmol by flow cytometry. The series is classed as functional. (Flow cytometry measures light scatter and fluorescence of single cells or particles in a stream.)
Series [10] has as its system Raji. As to the kind of experiment: Effect on TPA-induced cell cycle arrest in human Raji cells assessed as accumulation at S phase at 32 nmol by flow cytometry. The series is classed as functional.
Series [11] concerns Mus musculus. As to the kind of experiment: Inhibition of DMBA-induced/TPA-promoted carcinogenesis in ICR mouse assessed as reduction in skin-papilloma formation at 85 nmol administered twice weekly after 1 week of initiation for 20 weeks. The series is classed as functional. Details: scale not given: the % may be the effect or the level left.
Series [12] has as its system Mus musculus. As to the kind of experiment: Inhibition of DMBA-induced/TPA-promoted carcinogenesis in ICR mouse assessed as number of skin papillomas per mouse at 85 nmol administered twice weekly after 1 week of initiation for 20 weeks. The series is classed as functional. Details: scale not given: the % may be the effect or the level left.
The subject of series [13] is Raji. As to the kind of experiment: Effect on TPA-induced cell cycle arrest in human Raji cells assessed as accumulation at G2/M phase at 32 nmol by flow cytometry. The series is classed as functional.
Series [14] concerns Mus musculus. Kind of series: Inhibition of DMBA-induced/TPA-promoted carcinogenesis in ICR mouse assessed as number of mouse bearing one papilloma at 85 nmol administered twice weekly after 1 week of initiation. The series is classed as functional. Details: scale not given: the % may be the effect or the level left.

Each structure is given as a SMILES string.

As to `C=C(CO)[C@H]1Cc2c(ccc3c2O[C@@H]2COc4cc(OC)c(OC)cc4[C@@H]2C3=O)O1` [AMORPHIGENIN], the Activity in [1] was 100%; in series [3], 64.2%; in series [4], 100%; in series [6], 31.7%. Further, the viability at 100 molar ratio in series [2] is 80%. The viability at 1000 molar ratio in [5] came out at 80%. For the same compound, the viability at 500 molar ratio in series [7] worked out at 80%. For the same compound, in [8], the viability at 10 molar ratio turned out to be 80%.

Consider `COc1cc2c(cc1OC)[C@]1(O)C(=O)c3ccc4c(c3O[C@@H]1CO2)C=CC(C)(C)O4` [TEPHROSIN], for which the Activity amounted to 57.8% in [9]; 89.3% in series [1]; 13.4% in series [10]; 60% in series [11]; 26.1% in series [3]; 60.4% in series [4]. For the same compound, the Activity in series [12] amounted to 70%; in series [6], 8%; in series [13], 28.8%. The viability at 100 molar ratio in series [2] came to 70%. In series [5], the viability at 1000 molar ratio is 40%. Further, in [7], the viability at 500 molar ratio is 60%. In addition, the viability at 10 molar ratio in [8] came to 80%.

`COC1=CC(=O)[C@]2(C=C1OC)OC[C@H]1Oc3c(ccc4c3C=CC(C)(C)O4)C(=O)[C@H]12` [AMORPHISPIRONONE]: the Activity is 20% in [14]; 59.1% in series [9]; 100% in [1]; 10.3% in series [10]; greater than 80% in series [11]; 31.8% in series [3]. The Activity in [4] was 70.4%; in series [12], greater than 90%; in series [6], 0%; in series [13], 30.6%. Moreover, the viability at 100 molar ratio in [2] was 80%. For the same compound, in [5], the viability at 1000 molar ratio is 20%. Moreover, the viability at 500 molar ratio in [7] was found to be 80%. Besides, the viability at 10 molar ratio in [8] is 80%.

For the compound `COc1cc2c(cc1OC)[C@]1(O)C(=O)c3ccc4c(c3O[C@@H]1CO2)C[C@H](C(C)(C)O)O4`, the Activity in [1] is 100%; in [3], 43.9%; in [4], 82.1%; in [6], 22.6%. Also, in series [2], the viability at 100 molar ratio was 80%. The viability at 1000 molar ratio in series [5] came out at 80%. In series [7], the viability at 500 molar ratio worked out at 80%. For the same compound, the viability at 10 molar ratio in series [8] was found to be 80%.

For `C=C(CO)[C@H]1Cc2c(ccc3c2O[C@@H]2COc4cc(OC)c(OC)cc4[C@]2(O)C3=O)O1` [DABINOL], the Activity was determined as 100% in series [1], 89.7% in [3], 100% in [4] and 24.2% in series [6]. For the same compound, the viability at 100 molar ratio in series [2] amounted to 80%. For the same compound, the viability at 1000 molar ratio in series [5] amounted to 80%. The viability at 500 molar ratio in series [7] turned out to be 80%. The viability at 10 molar ratio in [8] came to 80%.

As to `COc1cc2c(cc1OC)[C@@H]1C(=O)c3ccc4c(c3O[C@@H]1CO2)C[C@H](C(C)(C)O[C@@H]1O[C@H](CO)[C@@H](O)[C@H](O)[C@H]1O)O4`, the Activity in series [1] is 100%; in series [3], 36.3%; in series [4], 87.3%; in series [6], 0%. In addition, in series [2], the viability at 100 molar ratio is 80%. Also, the viability at 1000 molar ratio in [5] turned out to be 80%. Further, the viability at 500 molar ratio in series [7] came out at 80%. Besides, the viability at 10 molar ratio in series [8] was 80%.
